Measurements: patent US8883754B2, “Method for inhibiting angiogenesis” (Ewha University—Industry Collaboration Foundation, priority 2009, dated 2014)
Where two headings read alike, the source gives them in different places.

Tests used:
VEGFR-2 RTK = target: T1, VEGFR-2 RTK (Homo sapiens, UniProt P35968); test: VEGFR-2 in vitro kinase assay on immunoprecipitates; format: cell-based
T1 construct: The VEGFR-2 was immunoprecipitated from Prx II siRNA-transfected or H2O2 (100 μM)-pretreated HAECs; endogenous in cells; host or cells: HAECs (human aortic endothelial cells)
T1 sequence (P35968 20-1356): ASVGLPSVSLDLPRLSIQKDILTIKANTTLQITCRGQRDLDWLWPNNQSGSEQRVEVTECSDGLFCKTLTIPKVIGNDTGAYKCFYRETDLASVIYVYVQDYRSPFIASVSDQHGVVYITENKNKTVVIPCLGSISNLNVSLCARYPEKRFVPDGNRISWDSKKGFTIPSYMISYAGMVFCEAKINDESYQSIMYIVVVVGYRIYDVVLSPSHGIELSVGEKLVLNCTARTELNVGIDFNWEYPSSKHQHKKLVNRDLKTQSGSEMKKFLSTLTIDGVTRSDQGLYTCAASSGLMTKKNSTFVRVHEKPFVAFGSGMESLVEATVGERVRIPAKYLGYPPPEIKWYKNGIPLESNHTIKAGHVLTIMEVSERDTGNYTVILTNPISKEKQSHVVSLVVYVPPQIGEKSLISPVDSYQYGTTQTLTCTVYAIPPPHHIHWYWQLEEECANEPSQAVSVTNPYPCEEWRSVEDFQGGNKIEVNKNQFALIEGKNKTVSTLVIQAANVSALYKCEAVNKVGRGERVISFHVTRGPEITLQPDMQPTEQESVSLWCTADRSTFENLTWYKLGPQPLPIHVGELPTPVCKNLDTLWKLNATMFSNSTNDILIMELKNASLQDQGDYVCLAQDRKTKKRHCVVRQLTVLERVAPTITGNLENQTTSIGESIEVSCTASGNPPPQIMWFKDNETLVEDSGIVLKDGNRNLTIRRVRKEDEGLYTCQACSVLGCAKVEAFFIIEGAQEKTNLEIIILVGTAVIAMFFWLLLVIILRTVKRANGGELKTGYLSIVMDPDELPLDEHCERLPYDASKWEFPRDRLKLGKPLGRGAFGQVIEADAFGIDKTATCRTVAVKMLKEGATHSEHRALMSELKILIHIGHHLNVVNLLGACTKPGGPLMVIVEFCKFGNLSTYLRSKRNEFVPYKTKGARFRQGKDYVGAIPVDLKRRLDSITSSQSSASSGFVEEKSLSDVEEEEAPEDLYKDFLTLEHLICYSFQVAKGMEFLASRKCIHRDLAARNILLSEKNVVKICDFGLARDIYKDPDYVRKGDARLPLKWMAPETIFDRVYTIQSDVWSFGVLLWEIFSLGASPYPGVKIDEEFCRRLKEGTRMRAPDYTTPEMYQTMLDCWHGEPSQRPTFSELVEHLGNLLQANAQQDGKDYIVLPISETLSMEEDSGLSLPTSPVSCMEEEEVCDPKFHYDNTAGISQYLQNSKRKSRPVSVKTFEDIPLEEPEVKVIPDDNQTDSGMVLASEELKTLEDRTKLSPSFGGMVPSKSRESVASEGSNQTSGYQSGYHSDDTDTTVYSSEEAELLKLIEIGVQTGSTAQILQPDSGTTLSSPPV
Experimental: At the appropriate time, the culture media were aspirated and cells were lysed in extraction buffer (TEB) containing 20 mM Hepes (pH 7.0), 1% Triton X-100, 150 mM NaCl, 10% glycerol, 1 mM EDTA, 2 mM EGTA, 1 mM DTT, 5 mM Na3VO4, 5 mM NaF, 1 mM AEBSF, aprotinin (5 μg/mL), and leupeptin (5 μg/mL). After brief centrifugation, the protein content of samples was quantified using the Bradford reagent (Bio-Rad). For immunoprecipitation, the resulting supernatants (120 μg proteins) were pre-cleaned with 10 μL of protein-A/G Sepharose 4 Fast Flow beads (Amersham Biosciences) for 1 hr, incubated overnight with 2 μg of the indicated antibodies, and further incubated at 4° C. for 3 hrs with 20 μL of protein-A/G Sepharose beads. Immunocomplexes were washed three times with 1 mL of TEB and then subjected to either in vitro kinase assay or immunoblotting.
The in vitro kinase assay was done as previously described in Choi, M. H. et al., (Nature 2005 435 (7040), 347-353). Briefly, the immunocomplexes precipitated with rabbit anti-flk-1(sc-504) antibody were incubated with 30 μL of kinase buffer (20 mM HEPES pH 7.5, 20 mM MgCl2, 20 mM β-glycerophosphate, and 200 μM Na3VO4) containing […] of γ-^32[P]-ATP and 0.5 μg GST-PLCγ1 at 30° C. for 10 minutes. The reaction was stopped by the addition of a SDS sample buffer. The samples were then boiled and separated on SDS denaturing gel. […]

VEGF-VEGFR-2 signaling = conditions: for VEGFR-2 activation in response to VEGF in Prx II knockdown cells: HAECs with Prx II knockdown
Source text: Sequences of the four siRNA duplexes for human Prx II were 5′-[…]-3′ (#1, SEQ ID NO. 1), 5′-[…]-3′ (#2, SEQ ID NO. 2), 5′-[…]-3′ (#3, SEQ ID NO. 3) and 5′-[…]-3′ (#4, SEQ ID NO. 4). The Prx II siRNA duplex #1 was mainly used for the study. Sequences of the four siRNA duplexes for human Prx I were 5′-[…]-3′ (#1, SEQ ID NO. 5), 5′-[…]-3′ (#2, SEQ ID NO. 6), 5′-[…]-3′ (#3, SEQ ID NO. 7) and 5′-[…]-3′ (#4, SEQ ID NO. 8); those for human GPxl, 5′-[…]-3′ (#1, SEQ ID NO. 9), 5′-[…]-3′ (#2, SEQ ID NO. 10), 5′-[…]-3′ (#3, SEQ ID NO. 11) and 5′-[…]-3′ (#4, SEQ ID NO. 12). A Prx III-specific siRNA was previously described in Chang, T. S. et al., (J Biol Chem 2004 279 (40), 41975-41984). The firefly luciferase siRNA were purchased or synthesized from Dharmacon. SiRNA duplexes for human VEGFR-1 (Cat No. sc-29319), VEGFR-2 (Cat No. sc-29318), and Prx IV (Cat. No. sc-40835) was purchased from Santa Cruz Biotechnology. The sequence of siRNA specific to human NOX4 was 5′-[…]-3′ (SEQ ID NO. 13). Human caveolin-1 siRNA, 5′-[…]-3′ (SEQ ID NO. 14) was purchased from Qiagen. Unless otherwise stated, the endothelial cells (ECs) were transfected with the siRNA duplexes for 24 hrs using lipofectamine RNAi MAXTM (Invitrogen). Then, the cells were serum-starved for an additional 18 hrs in media containing 0.5% fetal bovine serum before VEGF stimulation.
(§1) For immunoblotting, cell lysates or the immunoprecipitates were mixed with 5× Laemmli sample buffer and boiled for 5 minutes. The samples were separated on a SDS denaturing gel and then electrophoretically transferred onto nitrocellulose membranes, which were subsequently subjected to immunoblotting. In order to block non-specific binding, the membrane was reacted with TBS (Tris-buffered saline; TBST) containing 0.5% Tween-20 and 5% nonfat milk at room temperature for 1 hour. The above described blots were reacted with each primary antibody in TBST containing 5% nonfat milk or BSA at 4° C. for overnight. After washing with TBST, the blots were reacted with horseradish peroxidase-conjugated goat anti-mouse immunoglobulin (IgG; 1:5000 dilution) or goat anti-rabbit IgG (1:3000 dilution) at room temperature for 45 minutes. Protein bands were detected using an Amersham ECLTM detection system (GE healthcare). When necessary, the membranes were stripped by shaking them for 60 minutes at 37° C. in 67 mM Tris (pH 6.7), 2% SDS, 100 mM 2-mercaptoethanol and reprobed. with the appropriate pan antibody.

[1] = test system: intracellular ROS (H2O2) level in HAECs; test: Detection and measurement of reactive oxygen species (CM-H2DCFDA, DCF fluorescence); format: cell-based, human; conditions: for level of ROS/H2O2 elevated by the Prx II knockdown: HAECs with Prx II knockdown
Experimental: HAECs were rinsed with Endothelial Basal Medium without phenol red (EBM, Lonza) and immediately incubated with 5 μM 5,6-chloromethyl-2′,7′-dichlorodihydrofluorescein diacetate (CM-H2DCFDA) (Molecular Probe) at 37° C. for 5 minutes. After briefly washing the cell with EBM, the fluorescence images were taken by fluorescence microscope (Axiovert 200 Basic standard, Zeiss, Germany). The relative DCF fluorescence was calculated by averaging the levels of fluorescence from 50-80 cells after subtracting the background fluorescence.

HAECs = test: VEGF-induced tube formation on Matrigel; format: cell-based, human; conditions: HAECs expressing mVEGFR-2 WT or C1206S; 1 μM pretreated for 1 hr before VEGF
Experimental: For tube formation, the HAECs (50,000 cells/well) were placed on 12-well culture dishes coated with growth factor-reduced Matrigel matrix (BD Bioscience, cat #354230). Cells were cultured for 18 hrs in the EBM-2 media containing 0.5% serum medium in the presence or absence of VEGF-A (25 ng/mL). Thereafter, the cell images were taken from five random visual fields per sample and the total length of the tubes were quantitatively analyzed using an Image-Pro Plus version 6.2 (Media Cybernetics).

2-cys Prxs = conditions: HAECs
Experimental: as §1

With `O[C@H](CS)[C@H](O)CS` (racemic) [DTT, dithiothreitol] the “RTK activation abolished by Prx II knockdown or H2O2 treatment” value (VEGFR-2 RTK; VEGFR-2 immunoprecipitated from HAECs, incubated 10 minutes) was “fully restored”.

For methyl-β-cyclodextrin [MβCD], the “VEGFR-2 activation in response to VEGF in Prx II knockdown cells” value (“VEGFR-2 activation in response to VEGF” below) (VEGF-VEGFR-2 signaling) was “restored VEGFR-2 activation”.

With VEGF the “increase of ROS on VEGF treatment” value ([1]; control HAECs) was “two-fold”.

“5′-GCAUCAACUUGCAGAAAGAUU-3′ [caveolin-1 siRNA]” was tested, and the “VEGFR-2 activation in response to VEGF” value (VEGF-VEGFR-2 signaling) was “no longer affected by the Prx II knockdown”.

5′-GUCAACAUCCAGCUGUACC-3′ [NOX4 siRNA] was tested, and the “VEGFR-2 activation in response to VEGF” value (VEGF-VEGFR-2 signaling) was “completely rescued” and the “level of ROS/H2O2 elevated by the Prx II knockdown” value [1] was “background level”.

For `Cc1cc(C)c(/C=C2\C(=O)Nc3ccccc32)[nH]1` [SU5416], the “tube formation by VEGFR-2 WT and C1206S mutant” value (HAECs) was “completely blocked”.

`OO` [H2O2, hydrogen peroxide] was tested, and the “hyperoxidation of 2-cys Prxs” value (2-cys Prxs; micromolar concentrations up to 100 μM, 10 minutes) was “did not induce hyperoxidation”, the “hyperoxidation of 2-cys Prxs” value (2-cys Prxs; millimolar concentration (1 mM)) was “only slightly induced the hyperoxidation of Prx I and Prx III, but not Prx II” and the “VEGF-dependent induction of VEGFR-2 RTK activation after pretreatment” value (VEGFR-2 RTK; HAECs pretreated at various concentrations) was “suppressed VEGF-dependent induction of VEGFR-2 RTK activation in a dose-dependent manner”.

B1: catalase: polyethylene glycol (PEG)-conjugated catalase, an enzyme that reduces H2O2 to H2O (protein, UniProt P00432 2-527, looked up)
Catalase: ADNRDPASDQMKHWKEQRAAQKPDVLTTGGGNPVGDKLNSLTVGPRGPLLVQDVVFTDEMAHFDRERIPERVVHAKGAGAFGYFEVTHDITRYSKAKVFEHIGKRTPIAVRFSTVAGESGSADTVRDPRGFAVKFYTEDGNWDLVGNNTPIFFIRDALLFPSFIHSQKRNPQTHLKDPDMVWDFWSLRPESLHQVSFLFSDRGIPDGHRHMNGYGSHTFKLVNANGEAVYCKFHYKTDQGIKNLSVEDAARLAHEDPDYGLRDLFNAIATGNYPSWTLYIQVMTFSEAEIFPFNPFDLTKVWPHGDYPLIPVGKLVLNRNPVNYFAEVEQLAFDPSNMPPGIEPSPDKMLQGRLFAYPDTHRHRLGPNYLQIPVNCPYRARVANYQRDGPMCMMDNQGGAPNYYPNSFSAPEHQPSALEHRTHFSGDVQRFNSANDDNVTQVRTFYLKVLNEEQRKRLCENIAGHLKDAQLFIQKKAVKNFSDVHPEYGSRIQALLDKYNEEKPKNAVHTYVQHGSHLSAREKANL
modifications: PEG
notes: polyethylene glycol (PEG)-conjugated catalase, an enzyme that reduces H2O2 to H2O
In the case of B1, the VEGF-dependent tyrosine phosphorylation (VEGF-VEGFR-2 signaling; HAECs pretreated with PEG-catalase, increasing doses, 18 hours) is reported as “gradually decreased” and the “level of ROS/H2O2 elevated by the Prx II knockdown” value [1] is reported as “background level”.
